Test [1] concerns A549 (Human lung adenocarcinoma epithelial cell line). Kind of test: MTT cell proliferation assay in A549 cell line. The format is cell-based. As to conditions: A549 cells, treated 72 hr or 96 hr. Here is the method: (§1) Exemplary assays include MTT cell proliferation assay in A549 (Human lung adenocarcinoma epithelial cell line), and HL60 (Human promyelocytic leukemia cells) cell lines. Suitable cells include those derived through cell culture from patient samples (cancer cell lines) as well as cells derived using routine molecular biology techniques, e.g., retroviral transduction, transfection, mutagenesis, etc.
(§2) In an exemplary MTT assay, approximately 1,000 cells (A549 or HL60) are plated into each well of a 96-well plate. Cells are treated in duplicate with test compounds in a dose titration manner, typically 3-fold dilutions, eleven points per assay, with starting concentrations of 20 or 10 μM) or with DMSO-control (0.2% final concentration). Cells are treated for 72 hours (hr) or 96 hr before being analyzed by the MTT method. After 72 hr or 96 hr of compound treatment, 10 μL of MTT dye solution (5 mg/mL MTT dye [Sigma #M2128] in water) is added to each well and incubated at 37° C. for 2 hr. Following incubation, 100 μL of lysis buffer (10% SDS, 0.01 N HCl in water) is added to each well and incubated overnight at 37° C. The plate is analyzed the following day using a colorimetric plate reader at 595 nm wavelength. Values obtained for treatment samples are normalized to control samples.

Test [2] relates to HL60 (Human promyelocytic leukemia cells). Kind of test: MTT cell proliferation assay in HL60 cell line. The format is cell-based. As to conditions: HL-60, treated 72 hr or 96 hr. Here is the method:
as §1, §2

Take `CN(C)[C@@H]1CCN(c2ccc3c(=O)c(S(=O)(=O)N(C)C)cn(-c4nccs4)c3n2)C1`: the IC50 in test [1] was under 3 µM; in test [2], 3 to 10 µM. For the compound `O=c1c(S(=O)(=O)N2CCCCC2)cn(-c2nccs2)c2nc(N3CCN(c4cccnc4)CC3)ccc12`, the IC50 in test [1] was under 3 µM; in test [2], 3 to 10 µM.

For `O=c1c(S(=O)(=O)N2CCCCC2)cn(-c2nccs2)c2nc(N3CCCC3)ccc12`, the results for the IC50 in test [1] and in test [2] were under 3 µM and over 10 µM, respectively. Consider `CN[C@H]1CN(c2ccc3c(=O)c(S(=O)(=O)N4CCCCC4)cn(-c4nccs4)c3n2)C[C@@H]1OC`, for which the IC50 in test [1] and in test [2] was under 3 µM each time. As for `COC[C@H]1CCCN1c1ccc2c(=O)c(S(=O)(=O)N3CCCCC3)cn(-c3nccs3)c2n1`, the IC50 is 3 to 10 µM in test [1] and over 10 µM in test [2]. `CN(C)S(=O)(=O)c1cn(-c2nccs2)c2nc(N3CCOCC3)ccc2c1=O`: the IC50 in test [1] and in test [2] was over 10 µM throughout. For the compound `O=C(O)c1cn(-c2nccs2)c2nc(N3CCN(C4CCCCC4)CC3)cnc2c1=O`, the IC50 in test [1] and in test [2] was over 10 µM throughout. In the case of `O=c1c(S(=O)(=O)N2CCCCC2)cn(-c2nccs2)c2nc(N3CCC(N4CCCC4)CC3)ccc12`, the IC50 in test [1] and in test [2] was under 3 µM in each case. As for `COC[C@H]1CCCN1c1cnc2c(=O)c(C(=O)O)cn(-c3nccs3)c2n1`, the IC50 in test [1] and in test [2] was over 10 µM throughout. As to `CCN1CCN(c2cnc3c(=O)c(C(=O)O)cn(-c4nccs4)c3n2)CC1`, the IC50 in test [1] and in test [2] was over 10 µM in each case. As for `C[C@@H]1CN(c2ccc3c(=O)c(S(=O)(=O)N4CCCCC4)cn(-c4nccs4)c3n2)CCN1`, the IC50 in test [1] and in test [2] was under 3 µM in each case. `N[C@@H]1CCN(c2cnc3c(=O)c(C(=O)O)cn(-c4nccs4)c3n2)C1`: the IC50 in test [1] and in test [2] was over 10 µM in each case. Take `C[C@@H]1CN(c2ccc3c(=O)c(S(=O)(=O)N4CCCCC4)cn(-c4nccs4)c3n2)C[C@H](C)N1`: the IC50 in test [1] and in test [2] was under 3 µM in each case.

Turning to `O=C(O)c1cn(-c2nccs2)c2nc(N3CCC(O)C3)cnc2c1=O` (centres unmarked), the IC50 in test [1] and in test [2] was over 10 µM each time. Take `COC[C@@H]1CCCN1c1ccc2c(=O)c(S(=O)(=O)N3CCCCC3)cn(-c3nccs3)c2n1`: the results for the IC50 in test [1] and in test [2] were 3 to 10 µM and over 10 µM, respectively. Turning to `O=c1c(S(=O)(=O)N2CCCCC2)cn(-c2nccs2)c2nc(N3CCOCC3)ccc12`, the IC50 in test [1] was 3 to 10 µM; in test [2], over 10 µM. Regarding `O=c1c(S(=O)(=O)N2CCCCC2)cn(-c2nccs2)c2nc(N3CCN(c4ccc(C(F)(F)F)cc4)CC3)ccc12`, in test [1], the IC50 is under 3 µM. Turning to `CN1CCN(c2cnc3c(=O)c(C(=O)O)cn(-c4nccs4)c3n2)CC1`, the IC50 in test [1] and in test [2] was over 10 µM throughout. `CN[C@H]1CN(c2ccc3c(=O)c(S(=O)(=O)N(C)C)cn(-c4nccs4)c3n2)C[C@@H]1OC`: the IC50 in test [1] and in test [2] was under 3 µM in each case.

As to `CN1CCN(c2ccc3c(=O)c(S(=O)(=O)N4CCCCC4)cn(-c4nccs4)c3n2)CC1`, the IC50 in test [1] was under 3 µM; in test [2], over 10 µM. Take `O=C(O)c1cn(-c2nccs2)c2nc(N3CCN(c4ccccn4)CC3)cnc2c1=O`: the IC50 in test [1] and in test [2] was over 10 µM throughout. For `O=C(O)c1cn(-c2nccs2)c2nc(N3CCNCC3)cnc2c1=O`, the IC50 in test [1] and in test [2] was over 10 µM each time. For the compound `CN(C)S(=O)(=O)c1cn(-c2nccs2)c2nc(N3CCC(N4CCCC4)CC3)ccc2c1=O`, the IC50 in test [1] and in test [2] was 3 to 10 µM throughout.

`CCN(CC)C1CCN(c2ccc3c(=O)c(S(=O)(=O)N4CCCCC4)cn(-c4nccs4)c3n2)C1` (centres unmarked): the IC50 in test [1] and in test [2] was under 3 µM in each case. For the compound `CN(C)[C@@H]1CCN(c2cnc3c(=O)c(C(=O)O)cn(-c4nccs4)c3n2)C1`, the IC50 in test [1] and in test [2] was over 10 µM throughout.

On to `COC[C@@H]1CCCN1c1ccc2c(=O)c(S(=O)(=O)N(C)C)cn(-c3nccs3)c2n1`, for which the IC50 in test [1] and in test [2] was over 10 µM throughout. Consider `O=C(O)c1cn(-c2nccs2)c2nc(N3CCOCC3)cnc2c1=O`, for which the IC50 in test [1] and in test [2] was over 10 µM throughout. `COC[C@@H]1CCCN1c1cnc2c(=O)c(C(=O)O)cn(-c3nccs3)c2n1`: the IC50 in test [1] and in test [2] was over 10 µM throughout. Consider `C[C@@H]1CN(c2cnc3c(=O)c(C(=O)O)cn(-c4nccs4)c3n2)C[C@H](C)N1`, for which the IC50 in test [1] and in test [2] was over 10 µM each time. Regarding `N[C@@H]1CCN(c2ccc3c(=O)c(S(=O)(=O)N4CCCCC4)cn(-c4nccs4)c3n2)C1`, the IC50 in test [1] and in test [2] was under 3 µM throughout. Regarding `CCN(CC)C1CCN(c2cnc3c(=O)c(C(=O)O)cn(-c4nccs4)c3n2)C1` (centres unmarked), the IC50 in test [1] and in test [2] was over 10 µM each time. Turning to `O=C(O)c1cn(-c2nccs2)c2nc(N3CCCC3)cnc2c1=O`, the IC50 in test [1] and in test [2] was 3 to 10 µM each time. As to `CC1CCCN1c1cnc2c(=O)c(C(=O)O)cn(-c3nccs3)c2n1` (centres unmarked), the IC50 in test [1] is 3 to 10 µM; in test [2], over 10 µM. For `CN(C)S(=O)(=O)c1cn(-c2nccs2)c2nc(N3CC[C@@H](N)C3)ccc2c1=O`, the IC50 in test [1] and in test [2] was under 3 µM in each case. Turning to `COC1CCN(c2cnc3c(=O)c(C(=O)O)cn(-c4nccs4)c3n2)C1` (centres unmarked), the IC50 in test [1] and in test [2] was over 10 µM throughout. On to `CC(C)(C)OC(=O)N1CCN(c2cnc3c(=O)c(C(=O)O)cn(-c4nccs4)c3n2)CC1`, for which the IC50 in test [1] and in test [2] was over 10 µM throughout. Take `CN(C)S(=O)(=O)c1cn(-c2nccs2)c2nc(N3CCN(C4CCCCC4)CC3)ccc2c1=O`: the results for the IC50 in test [1] and in test [2] were under 3 µM and 3 to 10 µM, respectively.

With `O=c1c(S(=O)(=O)N2CCCCC2)cn(-c2nccs2)c2nc(N3CCC(O)C3)ccc12` (centres unmarked), the results for the IC50 in test [1] and in test [2] were under 3 µM and over 10 µM, respectively.

As to `C[C@@H]1CN(c2ccc3c(=O)c(S(=O)(=O)N(C)C)cn(-c4nccs4)c3n2)CCN1`, the IC50 in test [1] is 3 to 10 µM; in test [2], over 10 µM. As for `CN(C)S(=O)(=O)c1cn(-c2nccs2)c2nc(N3CCN(c4ccccn4)CC3)ccc2c1=O`, the IC50 in test [1] and in test [2] was over 10 µM in each case. As for `C[C@@H]1CN(c2ccc3c(=O)c(S(=O)(=O)N(C)C)cn(-c4nccs4)c3n2)C[C@H](C)N1`, the IC50 in test [1] and in test [2] was 3 to 10 µM in each case.

Take `O=c1c(S(=O)(=O)N2CCCCC2)cn(-c2nccs2)c2nc(N3CCN(C4CCCCC4)CC3)ccc12`: the IC50 in test [1] and in test [2] was under 3 µM each time. On to `CN[C@H]1CN(c2cnc3c(=O)c(C(=O)O)cn(-c4nccs4)c3n2)C[C@@H]1OC`, for which the IC50 in test [1] and in test [2] was over 10 µM in each case.

On to `O=c1c(S(=O)(=O)N2CCCCC2)cn(-c2nccs2)c2nc(N3CCNCC3)ccc12`, for which the IC50 in test [1] and in test [2] was under 3 µM throughout. On to `CN(C)S(=O)(=O)c1cn(-c2nccs2)c2nc(N3CCCC3)ccc2c1=O`, for which the IC50 was under 3 µM in test [1] and over 10 µM in test [2]. For `C[C@@H]1CN(c2cnc3c(=O)c(C(=O)O)cn(-c4nccs4)c3n2)CCN1`, the IC50 in test [1] and in test [2] was over 10 µM in each case. As to `CN(C)S(=O)(=O)c1cn(-c2nccs2)c2nc(N3CCNCC3)ccc2c1=O`, the IC50 in test [1] and in test [2] was 3 to 10 µM in each case. Consider `CN(C)[C@@H]1CCN(c2ccc3c(=O)c(S(=O)(=O)N4CCCCC4)cn(-c4nccs4)c3n2)C1`, for which the IC50 in test [1] and in test [2] was under 3 µM each time.

These data come from US8470817B2, “Compounds and methods for treatment of cancer” (Sunesis Pharmaceuticals, Inc., priority 2009, dated 2013).
